Measurements: PubChem BioAssay (NCI)
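Method: 48-hour compound exposure of cells in 96-well plates, five concentrations, linear interpolation of endpoints. The concentration for full growth arrest is given as TGI.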

tested on: A498 renal; assay: growth of human tumour cells (NCI), 48 h

Row | Compound | TGI
1 | c1cc(-c2ccc(-c3ccc(C4=NCCCN4)cc3)o2)ccc1C1=NCCCN1 | 13.4 µM
2 | Oc1c(CN2CCOCC2)ccc(CN2CCOCC2)c1O | > 100 µM
3 | CCC(O)CC1OC2(CCC1C)CC1OC(=O)/C=C\C(C)(O)C(O)C(C)C(O)C(OC3CC(OC)C(O)C(C)O3)C(O)C(C)(O)CCC/C=C/C3CC(C)COC3(O)CC(O2)C1C (stereo unspecified) | > 100 µM

tested on: LOX IMVI melanoma; assay: growth of human tumour cells (NCI), 48 h

Row | Compound | TGI
4 | O=C1C=CC(=O)c2c(O)c(N3CCN(c4ccccn4)CC3)c(Cl)c(O)c21 | 0.299 µM
5 | C/C(=N\NC(=S)Nc1ccccc1)c1nc2ncccc2[nH]1 | 15.8 µM
6 | c1cc(-c2ccc(-c3ccc(C4=NCCCN4)cc3)o2)ccc1C1=NCCCN1 | > 100 µM
7 | Oc1c(CN2CCOCC2)ccc(CN2CCOCC2)c1O | > 100 µM
8 | CCC(O)CC1OC2(CCC1C)CC1OC(=O)/C=C\C(C)(O)C(O)C(C)C(O)C(OC3CC(OC)C(O)C(C)O3)C(O)C(C)(O)CCC/C=C/C3CC(C)COC3(O)CC(O2)C1C (stereo unspecified) | 36.7 µM

tested on: HCC-2998 colon; assay: growth of human tumour cells (NCI), 48 h

Row | Compound | TGI
9 | O=C1C=CC(=O)c2c(O)c(N3CCN(c4ccccn4)CC3)c(Cl)c(O)c21 | 5.99 µM
10 | C/C(=N\NC(=S)Nc1ccccc1)c1nc2ncccc2[nH]1 | 20.5 µM
11 | c1cc(-c2ccc(-c3ccc(C4=NCCCN4)cc3)o2)ccc1C1=NCCCN1 | > 100 µM
12 | CCC(O)CC1OC2(CCC1C)CC1OC(=O)/C=C\C(C)(O)C(O)C(C)C(O)C(OC3CC(OC)C(O)C(C)O3)C(O)C(C)(O)CCC/C=C/C3CC(C)COC3(O)CC(O2)C1C (stereo unspecified) | 62.3 µM

tested on: RPMI-8226 leukemia; assay: growth of human tumour cells (NCI), 48 h

Row | Compound | TGI
13 | C/C(=N\NC(=S)Nc1ccccc1)c1nc2ncccc2[nH]1 | 84.4 µM
14 | Oc1c(CN2CCOCC2)ccc(CN2CCOCC2)c1O | > 100 µM

tested on: EKVX NSCLC; assay: growth of human tumour cells (NCI), 48 h

Row | Compound | TGI
15 | O=C1C=CC(=O)c2c(O)c(N3CCN(c4ccccn4)CC3)c(Cl)c(O)c21 | 19.6 µM
16 | C/C(=N\NC(=S)Nc1ccccc1)c1nc2ncccc2[nH]1 | 6.12 µM
17 | c1cc(-c2ccc(-c3ccc(C4=NCCCN4)cc3)o2)ccc1C1=NCCCN1 | > 100 µM
18 | Oc1c(CN2CCOCC2)ccc(CN2CCOCC2)c1O | > 100 µM
19 | CCC(O)CC1OC2(CCC1C)CC1OC(=O)/C=C\C(C)(O)C(O)C(C)C(O)C(OC3CC(OC)C(O)C(C)O3)C(O)C(C)(O)CCC/C=C/C3CC(C)COC3(O)CC(O2)C1C (stereo unspecified) | 26 µM

tested on: SR leukemia; assay: growth of human tumour cells (NCI), 48 h

Row | Compound | TGI
20 | O=C1C=CC(=O)c2c(O)c(N3CCN(c4ccccn4)CC3)c(Cl)c(O)c21 | 4.96 µM
21 | C/C(=N\NC(=S)Nc1ccccc1)c1nc2ncccc2[nH]1 | > 100 µM
22 | c1cc(-c2ccc(-c3ccc(C4=NCCCN4)cc3)o2)ccc1C1=NCCCN1 | > 100 µM
23 | Oc1c(CN2CCOCC2)ccc(CN2CCOCC2)c1O | > 100 µM
24 | CCC(O)CC1OC2(CCC1C)CC1OC(=O)/C=C\C(C)(O)C(O)C(C)C(O)C(OC3CC(OC)C(O)C(C)O3)C(O)C(C)(O)CCC/C=C/C3CC(C)COC3(O)CC(O2)C1C (stereo unspecified) | > 80.7 µM

tested on: UO-31 renal; assay: growth of human tumour cells (NCI), 48 h

Row | Compound | TGI
25 | O=C1C=CC(=O)c2c(O)c(N3CCN(c4ccccn4)CC3)c(Cl)c(O)c21 | 3.68 µM
26 | C/C(=N\NC(=S)Nc1ccccc1)c1nc2ncccc2[nH]1 | 7.47 µM
27 | c1cc(-c2ccc(-c3ccc(C4=NCCCN4)cc3)o2)ccc1C1=NCCCN1 | > 100 µM
28 | Oc1c(CN2CCOCC2)ccc(CN2CCOCC2)c1O | 72.2 µM
29 | CCC(O)CC1OC2(CCC1C)CC1OC(=O)/C=C\C(C)(O)C(O)C(C)C(O)C(OC3CC(OC)C(O)C(C)O3)C(O)C(C)(O)CCC/C=C/C3CC(C)COC3(O)CC(O2)C1C (stereo unspecified) | 68.7 µM

tested on: SK-MEL-28 melanoma; assay: growth of human tumour cells (NCI), 48 h

Row | Compound | TGI
30 | O=C1C=CC(=O)c2c(O)c(N3CCN(c4ccccn4)CC3)c(Cl)c(O)c21 | 3.37 µM
31 | C/C(=N\NC(=S)Nc1ccccc1)c1nc2ncccc2[nH]1 | 6.79 µM
32 | c1cc(-c2ccc(-c3ccc(C4=NCCCN4)cc3)o2)ccc1C1=NCCCN1 | > 100 µM
33 | Oc1c(CN2CCOCC2)ccc(CN2CCOCC2)c1O | > 100 µM
34 | CCC(O)CC1OC2(CCC1C)CC1OC(=O)/C=C\C(C)(O)C(O)C(C)C(O)C(OC3CC(OC)C(O)C(C)O3)C(O)C(C)(O)CCC/C=C/C3CC(C)COC3(O)CC(O2)C1C (stereo unspecified) | 54.6 µM

tested on: COLO 205 colon; assay: growth of human tumour cells (NCI), 48 h

Row | Compound | TGI
35 | O=C1C=CC(=O)c2c(O)c(N3CCN(c4ccccn4)CC3)c(Cl)c(O)c21 | 2.8 µM
36 | C/C(=N\NC(=S)Nc1ccccc1)c1nc2ncccc2[nH]1 | > 100 µM
37 | c1cc(-c2ccc(-c3ccc(C4=NCCCN4)cc3)o2)ccc1C1=NCCCN1 | > 100 µM
38 | Oc1c(CN2CCOCC2)ccc(CN2CCOCC2)c1O | > 100 µM
39 | CCC(O)CC1OC2(CCC1C)CC1OC(=O)/C=C\C(C)(O)C(O)C(C)C(O)C(OC3CC(OC)C(O)C(C)O3)C(O)C(C)(O)CCC/C=C/C3CC(C)COC3(O)CC(O2)C1C (stereo unspecified) | 17.2 µM

tested on: SK-MEL-5 melanoma; assay: growth of human tumour cells (NCI), 48 h

Row | Compound | TGI
40 | O=C1C=CC(=O)c2c(O)c(N3CCN(c4ccccn4)CC3)c(Cl)c(O)c21 | 2.95 µM
41 | C/C(=N\NC(=S)Nc1ccccc1)c1nc2ncccc2[nH]1 | 15 µM
42 | c1cc(-c2ccc(-c3ccc(C4=NCCCN4)cc3)o2)ccc1C1=NCCCN1 | > 100 µM
43 | Oc1c(CN2CCOCC2)ccc(CN2CCOCC2)c1O | 67 µM
44 | CCC(O)CC1OC2(CCC1C)CC1OC(=O)/C=C\C(C)(O)C(O)C(C)C(O)C(OC3CC(OC)C(O)C(C)O3)C(O)C(C)(O)CCC/C=C/C3CC(C)COC3(O)CC(O2)C1C (stereo unspecified) | 8.9 µM

tested on: ACHN renal; assay: growth of human tumour cells (NCI), 48 h

Row | Compound | TGI
45 | O=C1C=CC(=O)c2c(O)c(N3CCN(c4ccccn4)CC3)c(Cl)c(O)c21 | 6.51 µM
46 | C/C(=N\NC(=S)Nc1ccccc1)c1nc2ncccc2[nH]1 | 47.8 µM
47 | c1cc(-c2ccc(-c3ccc(C4=NCCCN4)cc3)o2)ccc1C1=NCCCN1 | > 100 µM
48 | Oc1c(CN2CCOCC2)ccc(CN2CCOCC2)c1O | > 100 µM
49 | CCC(O)CC1OC2(CCC1C)CC1OC(=O)/C=C\C(C)(O)C(O)C(C)C(O)C(OC3CC(OC)C(O)C(C)O3)C(O)C(C)(O)CCC/C=C/C3CC(C)COC3(O)CC(O2)C1C (stereo unspecified) | 50.9 µM

tested on: MDA-MB-231 breast; assay: growth of human tumour cells (NCI), 48 h

Row | Compound | TGI
50 | O=C1C=CC(=O)c2c(O)c(N3CCN(c4ccccn4)CC3)c(Cl)c(O)c21 | 3.55 µM
51 | C/C(=N\NC(=S)Nc1ccccc1)c1nc2ncccc2[nH]1 | 55.5 µM
52 | c1cc(-c2ccc(-c3ccc(C4=NCCCN4)cc3)o2)ccc1C1=NCCCN1 | > 100 µM
53 | Oc1c(CN2CCOCC2)ccc(CN2CCOCC2)c1O | > 100 µM
54 | CCC(O)CC1OC2(CCC1C)CC1OC(=O)/C=C\C(C)(O)C(O)C(C)C(O)C(OC3CC(OC)C(O)C(C)O3)C(O)C(C)(O)CCC/C=C/C3CC(C)COC3(O)CC(O2)C1C (stereo unspecified) | > 77.9 µM

tested on: NCI-H226 lung; assay: growth of human tumour cells (NCI), 48 h

Row | Compound | TGI
55 | O=C1C=CC(=O)c2c(O)c(N3CCN(c4ccccn4)CC3)c(Cl)c(O)c21 | 10.2 µM
56 | C/C(=N\NC(=S)Nc1ccccc1)c1nc2ncccc2[nH]1 | 13.2 µM
57 | c1cc(-c2ccc(-c3ccc(C4=NCCCN4)cc3)o2)ccc1C1=NCCCN1 | > 100 µM
58 | Oc1c(CN2CCOCC2)ccc(CN2CCOCC2)c1O | 88.9 µM
59 | CCC(O)CC1OC2(CCC1C)CC1OC(=O)/C=C\C(C)(O)C(O)C(C)C(O)C(OC3CC(OC)C(O)C(C)O3)C(O)C(C)(O)CCC/C=C/C3CC(C)COC3(O)CC(O2)C1C (stereo unspecified) | 27.3 µM

tested on: DU-145 prostate; assay: growth of human tumour cells (NCI), 48 h

Row | Compound | TGI
60 | O=C1C=CC(=O)c2c(O)c(N3CCN(c4ccccn4)CC3)c(Cl)c(O)c21 | 10.5 µM
61 | C/C(=N\NC(=S)Nc1ccccc1)c1nc2ncccc2[nH]1 | 18.2 µM
62 | c1cc(-c2ccc(-c3ccc(C4=NCCCN4)cc3)o2)ccc1C1=NCCCN1 | > 100 µM
63 | Oc1c(CN2CCOCC2)ccc(CN2CCOCC2)c1O | 83 µM
64 | CCC(O)CC1OC2(CCC1C)CC1OC(=O)/C=C\C(C)(O)C(O)C(C)C(O)C(OC3CC(OC)C(O)C(C)O3)C(O)C(C)(O)CCC/C=C/C3CC(C)COC3(O)CC(O2)C1C (stereo unspecified) | > 100 µM

tested on: A549 NSCLC; assay: growth of human tumour cells (NCI), 48 h

Row | Compound | TGI
65 | O=C1C=CC(=O)c2c(O)c(N3CCN(c4ccccn4)CC3)c(Cl)c(O)c21 | 11.8 µM
66 | C/C(=N\NC(=S)Nc1ccccc1)c1nc2ncccc2[nH]1 | > 100 µM
67 | c1cc(-c2ccc(-c3ccc(C4=NCCCN4)cc3)o2)ccc1C1=NCCCN1 | > 100 µM
68 | Oc1c(CN2CCOCC2)ccc(CN2CCOCC2)c1O | > 100 µM
69 | CCC(O)CC1OC2(CCC1C)CC1OC(=O)/C=C\C(C)(O)C(O)C(C)C(O)C(OC3CC(OC)C(O)C(C)O3)C(O)C(C)(O)CCC/C=C/C3CC(C)COC3(O)CC(O2)C1C (stereo unspecified) | > 100 µM

tested on: IGROV1 ovarian; assay: growth of human tumour cells (NCI), 48 h

Row | Compound | TGI
70 | O=C1C=CC(=O)c2c(O)c(N3CCN(c4ccccn4)CC3)c(Cl)c(O)c21 | 3.22 µM
71 | C/C(=N\NC(=S)Nc1ccccc1)c1nc2ncccc2[nH]1 | 24.2 µM
